Where two headings read alike, the source gives them in different places.
What was measured:
[1] = test system: Enterobacter aerogenes EA 15038 (porin+); assay: Etest MIC of indicator carbapenems on MH II agar without/with PMBN; type: cell-based
Description: (§1) The determinations of antibiotic MIC were carried out on solid culture media with the Etest® method. To do this, Etest® strips (bioMérieux, France) were used: • Etest® Imipenem IM 32, and • Etest® Ertapenem ETP 32, and also solid culture media, differing from one another by virtue of their non-inhibitory concentrations of PMBN.
(§2) These solid culture media are prepared in Petri dishes (0=145 mm; V=50 ml) on a base of MH II Agar (Becton Dickinson®, United States), more or less supplemented with PMBN. The PMBN concentrations range from 0 up to concentrations equivalent to one fifth of the MIC of PMBN (⅕ MICPMBN).
(§3) Using a swab and the Retro C80™ rota-plater (bioMérieux, France), the culture media were inoculated with the bacteria, originating from an inoculum of 0.5 McFarland, prepared in 0.85% NaCl solution from colonies subcultured the day before on MH II agar.
(§4) The various Etest® strips are then deposited on the surface of the culture media. After 16 to 20 hours of incubation at 35° C., the MICS were read.

[2] = test system: Enterobacter aerogenes EA 2 (porin+); assay: as above; type: cell-based; details: Klebsiella aerogenes
Description: as §1, §2, §3, §4

C. freundii 0403012 = assay: as above; type: cell-based
Description: as §1, §2, §3, §4
(§5) To do this, imipenem and ertapenem were used as indicator carbapenems. Non-inhibitory concentrations of PMBN, equivalent to concentrations of one tenth ( 1/10), one eighth (⅛) and one fifth (⅕) of the MIC of PMBN, were applied.

C. freundii 1204047 = assay: as above; type: cell-based
Description: as §1, §2, §3, §4, §5

[3] = test system: E. cloacae 1101172 (NDM producer); assay: as above; type: cell-based
Description: as §1, §2, §3, §4, §5

E. cloacae 9304026 = assay: as above; type: cell-based
Description: as §1, §2, §3, §4, §5

[4] = test system: E. coli 0506040 (VIM-1 producer); assay: as above; type: cell-based
Description: as §1, §2, §3, §4, §5

[5] = test system: E. coli 1012292 (KPC-2 producer); assay: as above; type: cell-based
Description: as §1, §2, §3, §4, §5

[6] = test system: K. pneumoniae 0901027 (KPC-3 producer); assay: as above; type: cell-based
Description: as §1, §2, §3, §4, §5

[7] = test system: K. pneumoniae 1012335 (OXA-48 producer); assay: as above; type: cell-based
Description: as §1, §2, §3, §4, §5

[8] = test system: K. pneumoniae 1104053 (OXA-48 producer); assay: as above; type: cell-based
Description: as §1, §2, §3, §4, §5

[9] = test system: K. pneumoniae 1108002 (KPC-3 producer); assay: as above; type: cell-based
Description: as §1, §2, §3, §4, §5

[10] = test system: K. pneumoniae 1108007 (VIM-1 producer); assay: as above; type: cell-based
Description: as §1, §2, §3, §4, §5

[11] = test system: S. marcescens 1008175 (IMP-1 producer); assay: as above; type: cell-based
Description: as §1, §2, §3, §4, §5

[12] = test system: carbapenem-resistant bacterial strains
Text: For each strain tested, each PMBN concentration and each indicator carbapenem, the MIC measured is compared to that obtained in the absence of PMBN. In the light of the possible difference in MIC values, a prognosis for the mechanism of resistance developed by the strain tested is established by applying the following general premise: A decrease in MICIM/ETP in the presence of PMBN is an indication of carbapenem resistance by membrane impermeability. In any other case, another mechanism of resistance is implicated.
For the purposes of verifying the accuracy of the prognoses established and the relevance of the general premise mentioned above: • each strain was tested by Western blot with the view to detection of porins (in the case in point, of the OmpF and OmpC isoforms), and • for some of the strains tested, in particular those for which there remains a doubt as to the mechanism of resistance developed (prognosis established in contradiction with the results of the porin detection by Western blot), a test for detecting carbapenemases by means of the RAPIDEC® CARBA NP kit (bioMérieux, France) was also carried out.
As regards the results thus obtained, the characterization of the strains termed carbapenem resistant by membrane impermeability is established either by the absence of porins detected by Western blot, or by carbapenem resistance that is not linked to the presence of carbapenemase, verified by a molecular method (PCR) and/or by a phenotypic method (RAPIDEC® CARBA NP).
A second method of interpretation of the results compiled in table 3 is proposed here. The prognosis system is based on the following “refined” premise: A decrease in MICIM/ETP, in the presence of PMBN, by at least a factor of 4 (that is to say with a difference in MIC of 2 doubling dilutions), is the signal of carbapenem resistance by membrane impermeability. If not, another mechanism of resistance is implicated.

[13] = Klebsiella aerogenes, EA 15038 (porin+), [PMBN] 0, read-out: MIC
[14] = Klebsiella aerogenes, EA 15038 (porin+), [PMBN] MIC/5, read-out: MIC
[15] = EA 2 (porin+), [PMBN] 0, read-out: MIC
[16] = EA 2 (porin+), [PMBN] MIC/8, read-out: MIC
[17] = EA 2 (porin+), [PMBN] MIC/10, read-out: MIC

C[C@@H](O)[C@H]1C(=O)N2C(C(=O)O)=C(S[C@@H]3CN[C@H](C(=O)Nc4cccc(C(=O)O)c4)C3)[C@H](C)[C@H]12 [ETP, ertapenem]
MIC ([1]; EA 15038 (porin+), [PMBN] MIC/8): 0.125 mg/L
MIC ([1]; Klebsiella aerogenes): 0.125 mg/L
MIC [1, 13]: 0.25 mg/L
MIC [1, 14]: 0.06 mg/L
MIC [2]: 0.125 mg/L
MIC [2, 15]: 0.03 mg/L
MIC [2, 16]: 0.25 mg/L
MIC [2, 17]: 0.25 mg/L
MIC (C. freundii 0403012; [PMBN] 0): 8 mg/L
MIC (C. freundii 0403012; [PMBN] MIC/5): 4 mg/L
MIC (C. freundii 0403012; [PMBN] MIC/8): 4 mg/L
MIC (C. freundii 0403012; [PMBN] MIC/10): 8 mg/L
MIC (C. freundii 1204047; [PMBN] 0): 32 mg/L
MIC (C. freundii 1204047; [PMBN] MIC/5): 4 mg/L
MIC (C. freundii 1204047; [PMBN] MIC/8): 8 mg/L
MIC (C. freundii 1204047; [PMBN] MIC/10): 8 mg/L
MIC ([3]; [PMBN] 0): 4 mg/L
MIC ([3]; [PMBN] MIC/5): 4 mg/L
MIC ([3]; [PMBN] MIC/8): 8 mg/L
MIC ([3]; [PMBN] MIC/10): 8 mg/L
MIC (E. cloacae 9304026; [PMBN] 0): 16 mg/L
MIC (E. cloacae 9304026; [PMBN] MIC/5): 8 mg/L
MIC (E. cloacae 9304026; [PMBN] MIC/8): 8 mg/L
MIC (E. cloacae 9304026; [PMBN] MIC/10): 4 mg/L
MIC ([4]; [PMBN] 0): 0.25 mg/L
MIC ([4]; [PMBN] MIC/5): 0.25 mg/L
MIC ([4]; [PMBN] MIC/8): 0.25 mg/L
MIC ([4]; [PMBN] MIC/10): 0.25 mg/L
MIC ([5]; [PMBN] 0): 8 mg/L
MIC ([5]; [PMBN] MIC/5): 2 mg/L
MIC ([5]; [PMBN] MIC/8): 4 mg/L
MIC ([5]; [PMBN] MIC/10): 4 mg/L
MIC ([6]; [PMBN] 0): 16 mg/L
MIC ([6]; [PMBN] MIC/5): 64 mg/L
MIC ([6]; [PMBN] MIC/8): 64 mg/L
MIC ([6]; [PMBN] MIC/10): 64 mg/L
MIC ([7]; [PMBN] 0): 2 mg/L
MIC ([7]; [PMBN] MIC/5): 4 mg/L
MIC ([7]; [PMBN] MIC/8): 4 mg/L
MIC ([7]; [PMBN] MIC/10): 4 mg/L
MIC ([8]; [PMBN] 0): 4 mg/L
MIC ([8]; [PMBN] MIC/5): 4 mg/L
MIC ([8]; [PMBN] MIC/8): 4 mg/L
MIC ([8]; [PMBN] MIC/10): 4 mg/L
MIC ([9]; [PMBN] 0): 16 mg/L
MIC ([9]; [PMBN] MIC/5): 64 mg/L
MIC ([9]; [PMBN] MIC/8): 64 mg/L
MIC ([9]; [PMBN] MIC/10): 64 mg/L
MIC ([10]; [PMBN] 0): 8 mg/L
MIC ([10]; [PMBN] MIC/5): 8 mg/L
MIC ([10]; [PMBN] MIC/8): 16 mg/L
MIC ([10]; [PMBN] MIC/10): 16 mg/L
MIC ([11]; [PMBN] 0): 256 mg/L
MIC ([11]; [PMBN] MIC/5): 256 mg/L
MIC ([11]; [PMBN] MIC/8): 256 mg/L
MIC ([11]; [PMBN] MIC/10): 256 mg/L
reliability of a negative prognosis with regard to resistance by membrane impermeability ([12]; general premise): 90%
reliability of a positive prognosis with regard to resistance by membrane impermeability ([12]; general premise): 66%
reliability of a negative prognosis with regard to resistance by membrane impermeability ([12]; refined premise): 85%
reliability of a positive prognosis with regard to resistance by membrane impermeability ([12]; refined premise): 86%

C[C@@H](O)[C@H]1C(=O)N2C(C(=O)O)=C(SCCN=CN)C[C@H]12 [IM, imipenem]
MIC [1, 13]: 0.25 mg/L
MIC [1, 14]: 0.25 mg/L
MIC ([1]; Klebsiella aerogenes, EA 15038 (porin+), [PMBN] MIC/8, read-out: MIC): 0.5 mg/L
MIC ([1]; Klebsiella aerogenes, EA 15038 (porin+), [PMBN] MIC/10, read-out: MIC): 0.5 mg/L
MIC [2, 15]: 0.03 mg/L
MIC ([2]; EA 2 (porin+), [PMBN] MIC/5, read-out: MIC): 0.03 mg/L
MIC [2, 16]: 0.06 mg/L
MIC [2, 17]: 0.06 mg/L
MIC (C. freundii 0403012; [PMBN] 0): 4 mg/L
MIC (C. freundii 0403012; [PMBN] MIC/5): 1 mg/L
MIC (C. freundii 0403012; [PMBN] MIC/8): 1 mg/L
MIC (C. freundii 0403012; [PMBN] MIC/10): 2 mg/L
MIC (C. freundii 1204047; [PMBN] 0): 1 mg/L
MIC (C. freundii 1204047; [PMBN] MIC/5): 1 mg/L
MIC (C. freundii 1204047; [PMBN] MIC/8): 1 mg/L
MIC (C. freundii 1204047; [PMBN] MIC/10): 2 mg/L
MIC ([3]; [PMBN] 0): 4 mg/L
MIC ([3]; [PMBN] MIC/5): 4 mg/L
MIC ([3]; [PMBN] MIC/8): 16 mg/L
MIC ([3]; [PMBN] MIC/10): 8 mg/L
MIC (E. cloacae 9304026; [PMBN] 0): 8 mg/L
MIC (E. cloacae 9304026; [PMBN] MIC/5): 4 mg/L
MIC (E. cloacae 9304026; [PMBN] MIC/8): 4 mg/L
MIC (E. cloacae 9304026; [PMBN] MIC/10): 4 mg/L
MIC ([4]; [PMBN] 0): 4 mg/L
MIC ([4]; [PMBN] MIC/5): 4 mg/L
MIC ([4]; [PMBN] MIC/8): 4 mg/L
MIC ([4]; [PMBN] MIC/10): 4 mg/L
MIC ([5]; [PMBN] 0): 8 mg/L
MIC ([5]; [PMBN] MIC/5): 1 mg/L
MIC ([5]; [PMBN] MIC/8): 4 mg/L
MIC ([5]; [PMBN] MIC/10): 4 mg/L
MIC ([6]; [PMBN] 0): 8 mg/L
MIC ([6]; [PMBN] MIC/5): 16 mg/L
MIC ([6]; [PMBN] MIC/8): 8 mg/L
MIC ([6]; [PMBN] MIC/10): 16 mg/L
MIC ([7]; [PMBN] 0): 2 mg/L
MIC ([7]; [PMBN] MIC/5): 2 mg/L
MIC ([7]; [PMBN] MIC/8): 2 mg/L
MIC ([7]; [PMBN] MIC/10): 2 mg/L
MIC ([8]; [PMBN] 0): 2 mg/L
MIC ([8]; [PMBN] MIC/5): 2 mg/L
MIC ([8]; [PMBN] MIC/8): 2 mg/L
MIC ([8]; [PMBN] MIC/10): 2 mg/L
MIC ([9]; [PMBN] 0): 16 mg/L
MIC ([9]; [PMBN] MIC/5): 16 mg/L
MIC ([9]; [PMBN] MIC/8): 16 mg/L
MIC ([9]; [PMBN] MIC/10): 16 mg/L
MIC ([10]; [PMBN] 0): 32 mg/L
MIC ([10]; [PMBN] MIC/5): 16 mg/L
MIC ([10]; [PMBN] MIC/8): 16 mg/L
MIC ([10]; [PMBN] MIC/10): 16 mg/L
MIC ([11]; [PMBN] 0): 128 mg/L
MIC ([11]; [PMBN] MIC/5): 256 mg/L
MIC ([11]; [PMBN] MIC/8): 256 mg/L
MIC ([11]; [PMBN] MIC/10): 128 mg/L
reliability of a negative prognosis with regard to resistance by membrane impermeability ([12]; general premise): 87%
reliability of a positive prognosis with regard to resistance by membrane impermeability ([12]; general premise): 73%
reliability of a negative prognosis with regard to resistance by membrane impermeability ([12]; refined premise): 77%
reliability of a positive prognosis with regard to resistance by membrane impermeability ([12]; refined premise): 95%

From patent US20180155757A1, “IDENTIFICATION OF BACTERIA THAT ARE RESISTANT TO CARBAPENEMS BY MEMBRANE IMPERVIOUSNESS” (BIOMÉRIEUX, priority 2015, published 2018)
